Assay [1] has as its target IRAK4 enzyme (Homo sapiens (Human), UniProt Q9NWZ3). The assay can be described thus: IRAK4 Biochemical Assay (TR-FRET, STK1 KinEASE). On the procedure: IRAK4 enzyme (Carna Biosciences, Chuo-ku, Kobe, Japan) activity was measured by detecting phosphorylated peptide substrate formation using an antibody against the phosphorylated peptide substrate. This is a time-resolved fluorescence resonance energy transfer (TR-FRET) immunoassay, based on the STK1 KinEASE Assay (Cisbio, Bedford, Mass.). The assay was designed as a simple two-step, endpoint assay (a 5 μl enzyme reaction followed by 5 μl stop and detect Solution) performed in ProxiPlate-384 Plus plates (Perkin Elmer, Waltham, Mass.). […] Compounds diluted in DMSO were spotted into 384 well plates using a Labcyte® Echo 550 Liquid Handling System prior to addition of IRAK4 enzyme and peptide substrate. Reaction solutions were delivered using a Multi-Flo (Bio-Tek Instruments). The enzyme and peptide solution was incubated with compound for 15 minutes at room temp before the reaction was initiated by the addition of ATP. The standard 5 μl reaction mixture contained 500 μM ATP, […] peptide (STK1 Peptide), 0.75 nM of IRAK4 in reaction buffer (50 mM HEPES, pH 7.0, 0.02% NaN3, 0.01% BSA, 0.1 mM Orthovanadate, 5 mM […], 0.025% NP-40, 1 mM DTT). After 120 min of incubation at room temperature, 5 μl of Stop and Detect Solution (1:100 Cryptate labeled anti-phosphorylated peptide antibody solution and 125 nM Tracer in a 50 mM HEPES pH 7.0 detection buffer containing sufficient EDTA) was added. The plate was then further incubated for 60 minutes at room temperature and read on Envision 2103 Multilabeled reader (PerkinElmer) with excitation/emission/FRET emission at 340 nm/615 nm665 nm, respectively. Fluorescence intensities at 615 nm and 665 nm emission wavelengths were expressed as aratio (665 nm/615 nm). Percentage of inhibition was calculated as below: % Inhibition=100×(Ratiosample−Ratio0% Inhibition)/(Ratio100% Inhibition−Ratio0% Inhibition)
The 0% inhibition value comes from control wells lacking inhibitor.

Assay [2] has as its system TNFα. The experiment in a line: IRAK4 Monocyte TNFα Cell Based Assay. On the set-up: species or system human. Conditions: read-out: EC50 MONO TNF HTRF. A digest of the protocol: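 Human monocytes (5,000/well) pretreated with compound 1 h at 37 °C (0.1% DMSO final), then stimulated with 50 pg/ml LPS for 4 h. Secreted TNFα measured by TR-FRET two-antibody detection after overnight incubation at room temperature; % control relative to unstimulated and LPS-stimulated wells.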

Setting [3] is: second part of Table 2, compounds 33-343, unit inferred, read-out: IC50 IRAK4-HTBS.
The mark [4] stands for this setting: human monocytes, second part of Table 2, compounds 33-343, unit inferred.
Where [5] appears, read: Homo sapiens, Monocyte, human monocytes, second part of Table 2, compounds 33-343, unit inferred.

Where two headings read alike, the source gives them in different places.

IRAK4 enzyme, sequence (Q9NWZ3 whole entry): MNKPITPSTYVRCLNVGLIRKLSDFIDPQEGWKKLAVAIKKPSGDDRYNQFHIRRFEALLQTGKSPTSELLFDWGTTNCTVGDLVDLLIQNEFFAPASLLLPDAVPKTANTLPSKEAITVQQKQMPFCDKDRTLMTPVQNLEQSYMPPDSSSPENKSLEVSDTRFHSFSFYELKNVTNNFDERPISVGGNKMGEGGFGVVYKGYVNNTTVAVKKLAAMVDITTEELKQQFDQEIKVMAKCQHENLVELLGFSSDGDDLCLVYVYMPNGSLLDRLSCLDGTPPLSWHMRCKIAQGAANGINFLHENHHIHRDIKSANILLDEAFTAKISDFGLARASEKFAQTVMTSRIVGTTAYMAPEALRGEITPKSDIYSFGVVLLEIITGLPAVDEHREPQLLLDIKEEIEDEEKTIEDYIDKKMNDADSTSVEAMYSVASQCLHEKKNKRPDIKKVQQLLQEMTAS

Regarding `CC(C)Nc1cc(-c2ccc3cc(C#N)cnn23)ncc1-c1nnc([C@@H]2C[C@H]2C(C)(C)O)s1` (single isomer, unassigned; isomer 1) [132 Isomer 1], in assay [1] (setting [3]), the IC50 is 1.29 nM. For the same compound, the half-maximal effective concentration (EC50) in assay [2] (setting [4]) turned out to be 12.5 nM.

Regarding `CC(C)(O)[C@H]1C[C@@H]1c1nnc(-c2cnc(-c3ccc4cc(C#N)cnn34)cc2NC2COC2)s1` (single isomer, unassigned; isomer 1) [136 Isomer 1], the concentration for half-maximal inhibition (IC50) in assay [1] (setting [3]) is 0.57 nM. Moreover, in assay [2] (setting [4]), the EC50 amounted to 4.2 nM.

Turning to `CC(=O)N[C@@H]1CCN(c2nnc(-c3cnc(-c4ccc5cc(C#N)cnn45)cc3NC3(C)COC3)s2)CC1(F)F` (single isomer, unassigned; isomer 1) [147 Isomer 1], in assay [1] (setting [3]), the IC50 was 0.63 nM. In assay [2] (setting [4]), the 50% effective concentration (EC50) came out at 8.2 nM.

As to `CC(C)Nc1cc(-c2ccc3cc(C#N)cnn23)ncc1-c1nnc([C@H]2C[C@@H]2C(C)(C)O)s1` (single isomer, unassigned; isomer 2) [132 Isomer 2], in assay [1] (setting [3]), the IC50 was determined as 1.3 nM. Besides, the half-maximal effective concentration (EC50) in assay [2] (setting [4]) is 15.2 nM.

Turning to `CC(C)(O)[C@@H]1C[C@H]1c1nnc(-c2cnc(-c3ccc4cc(C#N)cnn34)cc2NC2COC2)s1` (single isomer, unassigned; isomer 2) [136 Isomer 2], the IC50 in assay [1] (setting [3]) came out at 0.53 nM. For the same compound, in assay [2] (setting [4]), the concentration giving a half-maximal response (EC50) was determined as 4 nM.

For the compound `CC(=O)N[C@H]1CCN(c2nnc(-c3cnc(-c4ccc5cc(C#N)cnn45)cc3NC3(C)COC3)s2)CC1(F)F` (single isomer, unassigned; isomer 2) [147 Isomer 2], the IC50 in assay [1] (setting [3]) worked out at 0.62 nM. Besides, the EC50 in assay [2] (setting [4]) was found to be 24.2 nM.

On to `CC(C)(O)[C@@H]1C[C@@H]1c1nnc(-c2cnc(-c3ccc4cc(C#N)cnn34)cc2NC2COC2)s1` (single isomer, unassigned; isomer 3) [136 Isomer 3], for which, in assay [1] (setting [3]), the 50% inhibitory concentration (IC50) is 0.64 nM. Moreover, in assay [2] (setting [4]), the EC50 came out at 39 nM.

As for `CC(C)(O)[C@H]1C[C@H]1c1nnc(-c2cnc(-c3ccc4cc(C#N)cnn34)cc2NC2COC2)s1` (single isomer, unassigned; isomer 4) [136 Isomer 4], the concentration for half-maximal inhibition (IC50) in assay [1] (setting [3]) came out at 0.74 nM. The concentration giving a half-maximal response (EC50) in assay [2] (setting [4]) came to 30.5 nM.

Compound `CC(C)Nc1cc(-c2ccc3cc(C#N)cnn23)ncc1-c1nnc(C(=O)N2CCC[C@@H]2CN)s1` [Compound 230, (R)-7-(5-(5-(2-(aminomethyl)pyrrolidine-1-carbonyl)-1,3,4-thiadiazol-2-yl)-4-(isopropylamino)pyridin-2-yl)pyrrolo[1,2-b]pyridazine-3-carbonitrile] gave an IC50 in assay [1] of 0.74 nM.

In turn, `CC(=O)NC1CC2(C1)CN(c1nnc(-c3cnc(-c4ccc5cc(C#N)cnn45)cc3NC(C)C)s1)C2` [Compound 231, N-(2-(5-(6-(3-cyanopyrrolo[1,2-b]pyridazin-7-yl)-4-(isopropylamino)pyridin-3-yl)-1,3,4-thiadiazol-2-yl)-2-azaspiro[3.3]heptan-6-yl)acetamide] displayed an IC50 in assay [1] of 1.17 nM. In assay [2] (setting [5]), the EC50 was 22.2 nM.

In assay [1], `CC(C)Nc1cc(-c2ccc3cc(C#N)cnn23)ncc1-c1nnc(N2CC3CC(C2)O3)s1` [Compound 233, 7-(5-(5-(6-oxa-3-azabicyclo[3.1.1]heptan-3-yl)-1,3,4-thiadiazol-2-yl)-4-(isopropylamino)pyridin-2-yl)pyrrolo[1,2-b]pyridazine-3-carbonitrile] had a concentration for half-maximal inhibition (IC50) of 0.35 nM. For the same compound, the half-maximal effective concentration (EC50) in assay [2] (Homo sapiens, Monocyte) worked out at 6.4 nM.

Take `CC(C)Nc1cc(-c2ccc3cc(C#N)cnn23)ncc1-c1nnc(N2C3COCC2C3)s1` [Compound 234, 7-(5-(5-(3-oxa-6-azabicyclo[3.1.1]heptan-6-yl)-1,3,4-thiadiazol-2-yl)-4-(isopropylamino)pyridin-2-yl)pyrrolo[1,2-b]pyridazine-3-carbonitrile]: in assay [1], half-maximal inhibition (IC50) was put at 1.28 nM. Moreover, in assay [2] (setting [5]), the concentration for a half-maximal effect (EC50) was 178 nM.

Take `CC(C)Nc1cc(-c2ccc3cc(C#N)cnn23)ncc1-c1nnc(N2CC3CCC(C2)O3)s1` [Compound 235, 7-(5-(5-(8-oxa-3-azabicyclo[3.2.1]octan-3-yl)-1,3,4-thiadiazol-2-yl)-4-(isopropylamino)pyridin-2-yl)pyrrolo[1,2-b]pyridazine-3-carbonitrile]: it took 0.48 nM to reach half-maximal inhibition in assay [1] (IC50). The half-maximal effective concentration (EC50) in assay [2] (setting [5]) came out at 4.4 nM.

Consider `CC(C)Nc1cc(-c2ccc3cc(C#N)cnn23)ncc1-c1nnc(N2C3CCC2COC3)s1` [Compound 236, 7-(5-(5-(3-oxa-8-azabicyclo[3.2.1]octan-8-yl)-1,3,4-thiadiazol-2-yl)-4-(isopropylamino)pyridin-2-yl)pyrrolo[1,2-b]pyridazine-3-carbonitrile], for which the IC50 in assay [1] came out at 0.83 nM. The EC50 in assay [2] (Homo sapiens, Monocyte) was found to be 25.8 nM.

With `CC(=O)NC12CCC(c3nnc(-c4cnc(-c5ccc6cc(C#N)cnn56)cc4N[C@H](C)C#N)s3)(CC1)CC2` [Example 72, (R)—N-(4-(5-(4-((1-cyanoethyl)amino)-6-(3-cyanopyrrolo[1,2-b]pyridazin-7-yl)pyridin-3-yl)-1,3,4-thiadiazol-2-yl)bicyclo[2.2.2]octan-1-yl)acetamide], in assay [1], the IC50 is 0.54 nM.

With `CC(C)Nc1cc(-c2ccc3cc(C#N)cnn23)ncc1-c1nnc(N2C[C@H]3CC[C@@H](C2)[C@@H]3NC(=O)[C@@H](C)O)s1` [Example 90, (R)—N-((1R,5S,8s)-3-(5-(6-(3-cyanopyrrolo[1,2-b]pyridazin-7-yl)-4-(isopropylamino)pyridin-3-yl)-1,3,4-thiadiazol-2-yl)-3-azabicyclo[3.2.1]octan-8-yl)-2-hydroxypropanamide], the half-maximal inhibitory concentration (IC50) in assay [1] is 1.39 nM.

For `CC(C)Nc1cc(-c2ccc3cc(C#N)cnn23)ncc1-c1nnc(N2C[C@H]3CC[C@@H](C2)[C@@H]3NC(=O)N2CCN(C)CC2)s1` [Example 96, N-((1R,5S,8s)-3-(5-(6-(3-cyanopyrrolo[1,2-b]pyridazin-7-yl)-4-(isopropylamino)pyridin-3-yl)-1,3,4-thiadiazol-2-yl)-3-azabicyclo[3.2.1]octan-8-yl)-4-methylpiperazine-1-carboxamide], the midpoint of inhibition in assay [1], the IC50, lay at 0.58 nM.

In turn, `CC(=O)N1CCN(C(=O)N[C@@H]2[C@@H]3CC[C@H]2CN(c2nnc(-c4cnc(-c5ccc6cc(C#N)cnn56)cc4NC(C)C)s2)C3)CC1` [Example 104, 4-acetyl-N-((1R,5S,8s)-3-(5-(6-(3-cyanopyrrolo[1,2-b]pyridazin-7-yl)-4-(isopropylamino)pyridin-3-yl)-1,3,4-thiadiazol-2-yl)-3-azabicyclo[3.2.1]octan-8-yl)piperazine-1-carboxamide] gave an IC50 in assay [1] of 0.99 nM.

In assay [1], `CC(C)Nc1cc(-c2ccc3cc(C#N)cnn23)ncc1-c1nnc(C2CCNCC2)s1` [Example 129, 7-(4-(isopropylamino)-5-(5-(piperidin-4-yl)-1,3,4-thiadiazol-2-yl)pyridin-2-yl)pyrrolo[1,2-b]pyridazine-3-carbonitrile] returned an IC50 of 0.59 nM.

In assay [1], `CC(=O)NC12CCC(c3nnc(-c4cnc(-c5ccc6cc(C#N)cnn56)cc4NC4COC4)s3)(CC1)OC2` [Example 198, N-(1-(5-(6-(3-cyanopyrrolo[1,2-b]pyridazin-7-yl)-4-(oxetan-3-ylamino)pyridin-3-yl)-1,3,4-thiadiazol-2-yl)-2-oxabicyclo[2.2.2]octan-4-yl)acetamide] displayed an IC50 of 0.79 nM.

The compound `CC(C)Nc1cc(-c2ccc3cc(C#N)cnn23)ncc1-c1nnc(C(=O)N2CCC[C@H]2CN)s1` [Example 229, (S)-7-(5-(5-(2-(aminomethyl)pyrrolidine-1-carbonyl)-1,3,4-thiadiazol-2-yl)-4-(isopropylamino)pyridin-2-yl)pyrrolo[1,2-b]pyridazine-3-carbonitrile] registered an IC50 in assay [1] of 0.64 nM.

For the compound `CC(C)Nc1cc(-c2ccc3cc(C#N)cnn23)ncc1-c1nnc([C@H]2C[C@H](NC3COC3)C2)s1` [Example 283, 7-(4-(isopropylamino)-5-(5-((1r,3r)-3-(oxetan-3-ylamino)cyclobutyl)-1,3,4-thiadiazol-2-yl)pyridin-2-yl)pyrrolo[1,2-b]pyridazine-3-carbonitrile], inhibition in assay [1] was half-maximal at 0.66 nM (IC50).

For `CC(C)Nc1cc(-c2ccc3cc(C#N)cnn23)ncc1-c1nnc([C@H]2CC[C@H](NC(=O)C(C)(C)O)CC2)s1` [Example 315, N-((1r,4r)-4-(5-(6-(3-cyanopyrrolo[1,2-b]pyridazin-7-yl)-4-(isopropylamino)pyridin-3-yl)-1,3,4-thiadiazol-2-yl)cyclohexyl)-2-hydroxy-2-methylpropanamide], in assay [2] (setting [4]), the EC50 stood at 10.9 nM.

Take `CCOC(=O)Cc1nnc(-c2cnc(-c3ccc4cc(C#N)cnn34)cc2NC(C)C)s1` [Example 318]: in assay [2] (setting [4]), the EC50 turned out to be 102 nM.
